Consider 9 compounds from patent US7863321B2, “Anti-cancer combinations” (Cancer Research Technology Limited, priority 2001, dated 2011).

Counter-ions that a name gives are not always drawn. Like-named read-outs stand apart in the source and are kept apart here. Marks after values point to notes of the source that are not given here.

Data set [1] is described as follows: in vivo. Here is the method:
(§1) Compounds: A stock solution of DMXAA, synthesised in the Auckland Cancer Society Research Centre, was prepared in phosphate-buffered saline, protected from light and stored frozen. Cisplatin (Sigma Chemical Co., St. Louis, Mo.) was dissolved in 0.9% saline. Stock solutions of carboplatin and 5-fluorouracil (Bristol Myers Squibb, Sermonita, Italy) and cyclophosphamide (Mead Johnson Oncology Products, Princeton, N.J.) were diluted with sterile water. […] All compounds were administered to mice by i.p. injection at 0.01 ml/g bodyweight.
(§2) Animals and Tumours: Murine mammary carcinoma MDAH-Mca-4 tumours were grown from stocks stored in liquid nitrogen at the sixth transplant generation. Tumours (eighth transplant generation when used) were grown from 20 μl of cell suspension (7 mg packed cells), inoculated i.m. (intramuscular) in the right gastrocnemius muscle of female C3H/HeN mice (22-25 g at the time of treatment). Mice were randomised to treatment which commenced when the tumour+leg diameter reached 10-11 mm (0.5-0.7 g tumour).
(§3) Host Toxicity and Antitumour Activity: Mice were treated with chemotherapeutic drugs at a range of doses, at 1.33-fold increments, up to the expected MTD (maximum tolerated dose, as estimated in pilot experiments or from the literature). Toxicity was assessed as lethality, and body weight loss measured four days after treatment. Any animals becoming moribund were terminated and treated as drug-related deaths in the analysis. The diameter of the tumour-bearing leg was measured 3 times per week after treatment. Antitumour activity was assessed from the tumour growth delay, defined as the difference in time to reach the endpoint of 13 mm (1.5 g tumour) for treated and control groups. Responses were classed as cures if animals were free of evident tumour 120 days after treatment. The statistical significance of tumour growth inhibition was tested by ANOVA using SAS for Windows, with Dunnett's test to evaluate p-values for differences between treatment groups. In experiments with substantial numbers of cures (free of tumour for >120 days after treatment), statistical significance was tested by Kruskal-Wallis non-parametric analysis of variance using SAS for Windows, and the difference between treatment and control groups by Dunn's test using Sigmastat v2.0. The gradient and standard error of dose-response curves was determined by linear regression using Sigmastat, and the DMF (Dose Modifying Factor) calculated as the gradient with DMXAA/gradient without DMXAA.

The test system of a further data set is MDAH-Mca-4 tumours. Type of data set: in vivo, C3H/HeN mice. To be noted: for DMF: Dose Modifying Factor = gradient with DMXAA (80 μmol/kg)/gradient without DMXAA; for single agent activity against MDAH-Mca-4 tumour: doses up to MTD; for Slope of dose/response: growth delay vs dose, linear regression; for growth delays at their MTDs: chemotherapy drug alone at MTD. The method, then:
as §1, §2, §3

For data set [2], the system named is PSN1 pancreatic tumour xenografts. In words: PSN1 xenograft tumour volume tripling and doubling time. Conditions: i.v., DMXAA 20 mg/kg, gemcitabine 240 mg/kg, female MF1 nude mice; for PSN1 volume doubling times, Median: control 3.2; for PSN1 volume tripling times, Median: control 4.9.
For another data set, the system named is tumour blood flow. To be noted: Phase I clinical trials, well-tolerated doses; cited from earlier work.
Data set [3] can be described thus: in vivo. Conditions: female, C3H/HeN, mouse, plasma, ip, 80 μmol/kg.
Procedure: (§4) Pharmacokinetics: Female C3H/HeN mice bearing MDAH-Mca-4 tumours (0.5-0.7 g) were injected i.p. with carboplatin (316 μmol/kg), DMXAA (80 μmol/kg), or simultaneously received carboplatin and DMXAA, at the same doses. […] Groups of 2-5 mice were used for each time point.
(§5) HPLC analysis of DMXAA: Concentrations of DMXAA in plasma were determined as follows. Aliquots of plasma (50 μl) were treated with 1 ml of ice-cold acetonitrile:methanol (3:1 v/v), centrifuged, and the resulting supernatants evaporated using a Speed-Vac solvent concentrator (Savant Instruments, NY). The residues were dissolved in 200 μl of 10 mM ammonium acetate buffer (pH 5) and 25 μl was analysed by HPLC using a HP1100 system with diode array detector (278 nm) and fluorescence detector. The column used was a 3.2 mm×150 mm C8 5 μm column (Alltima Associates Inc., Deerfield, Ill.) and a flow rate of 0.7 ml/min, with a mobile phase of 16% acetonitrile (v/v) in 10 mM ammonium acetate buffer (pH 5). The retention time for DMXAA was 7.3 min. […] The intra- and inter-assay precision and accuracy gave coefficients of variation <7%, and an average recovery of 70%. The lower sensitivity limit of detection by fluorescence (signal:noise ratio of 3) was 0.1 μM. […]
Data set [4] can be described thus: Pharmacokinetics of carboplatin (platinum by ICP-MS) and DMXAA (HPLC) in plasma and tumour. To be noted: plasma; DMXAA 80 μmol/kg i.p.; (% CV).
Procedure: as §4, §5
Setting [5] is: chemotherapy drug co-administered with DMXAA 80 μmol/kg, i.p.
Setting [6] is: chemotherapy drug alone, ± standard error of the slope.
Where [7] appears, read: co-administered with DMXAA 80 μmol/kg.
[8] abbreviates: female, C3H/HeN, mouse, in vivo, ip, MTD.
Where [9] appears, read: DMXAA alone at 80 μmol/kg, i.p.
[10] abbreviates: chemotherapy drug alone, i.p., mice bearing MDAH-Mca-4 tumours.
[11] abbreviates: female, C3H/HeN, mouse, in vivo, ip.

Regarding `CC[C@]1(O)C[C@H]2CN(CCc3c([nH]c4ccccc34)[C@@](C(=O)OC)(c3cc4c(cc3OC)N(C=O)[C@H]3[C@@](O)(C(=O)OC)[C@H](OC(C)=O)[C@]5(CC)C=CCN6CC[C@]43[C@@H]65)C2)C1` [Vincristine], the “% body weight change at 4 days” value is −7.0 ± 1.2% in the data set “in vivo [1]” (chemotherapy drug alone, i.p.) and −10.0 ± 1.4% in the data set “in vivo [1]” (setting [5]). The MTD in “in vivo [1]” (female, C3H/HeN, mouse, in vivo, ip, MTD, chemotherapy drug alone, mice bearing MDAH-Mca-4 tumours) amounted to 1 µmol/kg; in “in vivo [1]” (female, C3H/HeN, mouse, in vivo, ip, MTD, chemotherapy drug co-administered with DMXAA 80 μmol/kg), 1 µmol/kg. Also, the DMF in the data set on MDAH-Mca-4 tumours is >7^c. In addition, the “single agent activity against MDAH-Mca-4 tumour” value (“single agent activity” below) in the data set on MDAH-Mca-4 tumours (chemotherapy drug alone) was “essentially inactive”. Also, the Slope of dose/response was -0.0 ± 1.3 days/µmol/kg in the data set on MDAH-Mca-4 tumours (setting [6]) and 14.1 ± 5.4 days/µmol/kg with MDAH-Mca-4 tumours (setting [7]).
Regarding `Nc1ccn([C@@H]2O[C@H](CO)[C@@H](O)C2(F)F)c(=O)n1` [gemcitabine, 2′-deoxy-2′,2′-difluorocytidine monohydrochloride (b-isomer)], in data set [2], the “PSN1 volume doubling times, Treated-Control” value is 7.5 days; the “PSN1 volume tripling times, Treated-Control” value is recorded as 9.0 days; the “PSN1 volume doubling times, Median” value came out at 9.7 days; the “PSN1 volume tripling times, Median” value was 13.9 days.
In the case of `O=c1[nH]cc(F)c(=O)[nH]1` [5-fluorouracil, 5-fluoro-2,4(1H,3H)-pyrimidinedione], the “% body weight change at 4 days” value in “in vivo [1]” (chemotherapy drug alone, i.p.) is −8.5 ± 0.8%; in “in vivo [1]” (setting [5]), −14.1 ± 1.5%. Besides, the MTD in the data set “in vivo [1]” (setting [8]) stood at 1780 µmol/kg. In addition, in the data set with MDAH-Mca-4 tumours, the DMF worked out at 0.5 ± 0.2. In addition, the “growth delays at their MTDs” value with MDAH-Mca-4 tumours is recorded as around 10 days. In addition, the Slope of dose/response in the data set on MDAH-Mca-4 tumours (setting [6]) was 0.0051 ± 0.001^a days/μmol/kg; in the data set with MDAH-Mca-4 tumours (setting [7]), 0.0027 ± 0.001 days/µmol/kg.
One may read the Km as the concentration of substrate that gives half-maximal velocity. `Cc1ccc2c(=O)c3cccc(CC(=O)O)c3oc2c1C` [DMXAA, 5,6-dimethylxanthenone-4-acetic acid]: in the data set on MDAH-Mca-4 tumours (setting [9]), the “mean tumour growth delays (range)” value lay within 3.5 to 8.3 days and the “tumour growth delay, overall mean” value is 6.6 ± 0.6 days. In addition, the “tumour blood flow by dynamic MRI” value in the data set on tumour blood flow is recorded as “significant reduction in tumour blood flow”. Also, the Km in “in vivo [3]” is 220 µM. In data set [2], the “PSN1 volume doubling times, Treated-Control” value stood at 0.4 days; the “PSN1 volume tripling times, Treated-Control” value was 1.1 days; the “PSN1 volume doubling times, Median” value turned out to be 3.6 days; the “PSN1 volume tripling times, Median” value is on record as 6.0 days. For the same compound, the Vmax in data set [4] is 63 (6.1) μm hr^−1.
Regarding `N.N.[Cl][Pt][Cl]` [Cisplatin], the “% body weight change at 4 days” value in the data set “in vivo [1]” (chemotherapy drug alone, i.p.) is on record as −9.5 ± 1.4%; in “in vivo [1]” (setting [5]), −14.4 ± 2.3%. Further, the MTD in “in vivo [1]” (setting [10]) and in “in vivo [1]” (setting [5]) was 42.1 µmol/kg each time. The compound also registered a DMF in the data set with MDAH-Mca-4 tumours of 1.8 ± 1.2. Moreover, in the data set with MDAH-Mca-4 tumours, the “growth delays at their MTDs” value is given as around 10 days. In addition, the values for the Slope of dose/response with MDAH-Mca-4 tumours (setting [6]) and in the data set on MDAH-Mca-4 tumours (setting [7]) were 0.19 ± 0.06 days/µmol/kg and 0.35 ± 0.12 days/µmol/kg, respectively.
In the case of `O=P1(N(CCCl)CCCl)NCCCO1` (centres unmarked) [Cyclophosphamide, 2-[bis(2-chloroethyl)amino]tetrahydro-2H-13,2-oxazaphosphorine-2-oxide monohydrate], the “% body weight change at 4 days” value in the data set “in vivo [1]” (chemotherapy drug alone, i.p.) is on record as −0.8 ± 1.3%; in “in vivo [1]” (setting [5]) it was −9.2 ± 1.4%. In addition, in “in vivo [1]” (setting [11]), the MTD at 4 days was at least 1340 µmol/kg. The DMF in the data set on MDAH-Mca-4 tumours amounted to 2.7 ± 0.3. Further, the “growth delays at their MTDs” value in the data set with MDAH-Mca-4 tumours is around 10 days. The figures for the Slope of dose/response with MDAH-Mca-4 tumours (setting [6]) and with MDAH-Mca-4 tumours (setting [7]) were 0.0062 ± 0.0001 days/µmol/kg and 0.0167 ± 0.0013 days/µmol/kg, respectively.
On to `COc1cccc2c1C(=O)c1c(O)c3c(c(O)c1C2=O)C[C@@](O)(C(=O)CO)C[C@@H]3O[C@H]1C[C@H](N)[C@H](O)[C@H](C)O1` [Doxorubicin, (8S,10S)-10-[(3-amino-2,3,6-trideoxy-a-L-lyxo-hexopyranosyl)oxy]-8-glycolyl-7,8,9,10-tetrahydro-6,8,11-trihydroxy-1-meth-oxy-5,12-naphthacenedione hydrochloride], for which the “% body weight change at 4 days” value in the data set “in vivo [1]” (chemotherapy drug alone, i.p.) is listed as −3.9 ± 0.6%; in “in vivo [1]” (setting [5]), −5.5 ± 1.2%. Moreover, the figures for the MTD in “in vivo [1]” (setting [11]) and in “in vivo [1]” (setting [8]) were 17.8 µmol/kg and 23.7 µmol/kg, respectively. The same compound came in with a DMF with MDAH-Mca-4 tumours of 2.5 ± 1.1. Moreover, the “growth delays at their MTDs” value with MDAH-Mca-4 tumours is on record as around 10 days. Also, the Slope of dose/response in the data set with MDAH-Mca-4 tumours (setting [6]) is 0.42 ± 0.10 days/µmol/kg.
As for `N.N.O=C([O-])C1(C(=O)[O-])CCC1.[Pt+2]` [Carboplatin, platinum, diammine [1,1-cyclobutanedicarboxylato(2-)-0,0′]-, (SP-4-2)], the “% body weight change at 4 days” value in “in vivo [1]” (chemotherapy drug alone, i.p.) is −5.6 ± 1.5%; in “in vivo [1]” (setting [5]) it was −8.5 ± 1.4%. Besides, the MTD in the data set “in vivo [1]” (setting [10]) and in the data set “in vivo [1]” (setting [5]) was 316 µmol/kg each time. The compound also displayed a DMF with MDAH-Mca-4 tumours of 3.4 ± 2.3. Besides, the “single agent activity” value in the data set on MDAH-Mca-4 tumours (chemotherapy drug alone) was “essentially inactive”. Further, the results for the Slope of dose/response in the data set on MDAH-Mca-4 tumours (setting [6]) and in the data set on MDAH-Mca-4 tumours (setting [7]) were 0.0094 ± 0.0035 days/µmol/kg and 0.032 ± 0.010 days/µmol/kg, respectively.
Regarding `COc1cc([C@@H]2c3cc4c(cc3[C@@H](O[C@@H]3O[C@@H]5CO[C@@H](C)O[C@H]5[C@H](O)[C@H]3O)[C@H]3COC(=O)[C@H]23)OCO4)cc(OC)c1O` [Etoposide, 4′-demethylepipodophyllotoxin-9-[4,6-0-(R)-ethylidene-(beta)-D-glucopyranoside]], the “% body weight change at 4 days” value is −2.0 ± 1.7% in “in vivo [1]” (chemotherapy drug alone, i.p.) and −6.5 ± 3.3% in “in vivo [1]” (setting [5]). Moreover, in the data set “in vivo [1]” (setting [8]), the MTD is at least 75 µmol/kg. In the data set on MDAH-Mca-4 tumours, this compound gave a DMF of 4.7 ± 2.9. For the same compound, in the data set with MDAH-Mca-4 tumours (chemotherapy drug alone), the “single agent activity” value was “essentially inactive”. The Slope of dose/response is 0.030 ± 0.010 days/µmol/kg with MDAH-Mca-4 tumours (setting [6]) and 0.14 ± 0.04 days/µmol/kg in the data set with MDAH-Mca-4 tumours (setting [7]).
